# Measurements published in patent US20140296346A1, “Crystalline Forms of (-)-(1R,2R)-3-(3-dimethylamino-1-ethyl-2-methylpropyl)-phenol hydrochloride” (priority 2004, published 2014).
# Counter-ions that a name gives are not always drawn.
# What was measured:
# [1] = Stability of the crystalline form under ambient conditions
# [2] = Variable temperature X-ray powder diffraction experiment; assay type: physicochemical; conditions: variable temperature XRPD
# Experimental: Variable Temperature X-Ray Powder Diffraction Experiment
# A variable temperature X-ray powder diffraction experiment was run thereby producing Form B from Form A. Form A converted to Form B from 40-50° C. during the experiment.
SMILES,Stability at ambient conditions [1],Stability under ambient conditions compared with Form B ([1]; relative to Form B),Temperature at which Form A converted to Form B ([2]; on heating),Reversibility of the polymorphic conversion ([2]; at lower temperature)
"CC[C@@H](c1cccc(O)c1)[C@@H](C)CN(C)C [Form A, (-)-(1R,2R)-3-(3-dimethylamino-1-ethyl-2-methylpropyl)-phenol hydrochloride]",very stable,more stable,40-50 °C,
"CC[C@@H](c1cccc(O)c1)[C@@H](C)CN(C)C.Cl [Form B, (-)-(1R,2R)-3-(3-dimethylamino-1-ethyl-2-methylpropyl)-phenol hydrochloride]",,,,changing over into Form A at lower temperature
